SMILES strings stand for the structures. Read-outs that look alike come from different tables or passages of the source.

Data set [1] is described as follows: Peak area of Compound X in plasma after intratracheal administration of Compound 54 (LC/MS). It counts as in vivo, Sprague-Dawley rats. The method, then: (§1) A 10 mg/mL solution of Compound 54 in saline was prepared and 0.2 mL of this solution was administered into the trachea of two Sprague-Dawley rats via intubation. Blood samples were taken at 10 minutes, 30 minutes, 60 minutes and 120 minutes, post-intubation. The plasma concentration of Compound 54 was measured at each of these time points using HPLC and the peak area of the amount of Compound X in the plasma was measured at each of these time points using LC/MS.
The peak area of Compound X correlates with the plasma concentration of this compound.

Data set [2] is described as follows: Plasma concentration of Compound 54 after intratracheal administration (HPLC). The following applies: Sprague-Dawley, rat, other: intratracheal (into the trachea via intubation), 2 mg per rat, 0.2 mL of 10 mg/mL solution in saline. It is filed as in vivo, Sprague-Dawley rats. The method, then: as §1

`CNC(=O)[C@H]1O[C@@H](n2cnc3c(NC)nc(C#N)nc32)[C@H](O)[C@@H]1O` [Compound X]: the “Mean Peak Area” value is 0.4 in data set [1] (120 min after intratracheal administration of Compound 54, Rat 2 value not available); 102 in data set [1] (mean of rats, 10 min after intratracheal administration of Compound 54); 10.8 in data set [1] (mean of rats, 30 min after intratracheal administration of Compound 54); 3.1 in data set [1] (mean of rats, 60 min after intratracheal administration of Compound 54). Further, the “Peak Area Rat 1” value is 140 in data set [1] (Rat 1, 10 min after intratracheal administration of Compound 54); 9.6 in data set [1] (Rat 1, 30 min after intratracheal administration of Compound 54); 4.4 in data set [1] (Rat 1, 60 min after intratracheal administration of Compound 54); 0.4 in data set [1] (Rat 1, 120 min after intratracheal administration of Compound 54). For the same compound, the “Peak Area Rat 2” value in data set [1] (Rat 2, 10 min after intratracheal administration of Compound 54) is given as 64; in data set [1] (Rat 2, 30 min after intratracheal administration of Compound 54), 12; in data set [1] (Rat 2, 60 min after intratracheal administration of Compound 54) it was 1.8.

Consider `CNC(=O)[C@H]1O[C@@H](n2cnc3c(NC)nc(C#N)nc32)[C@@H]2OP(=O)(O)O[C@@H]21` [Compound 54], for which the concentration at 10 min in data set [2] (Rat 1, 10 min post-intubation, read-out: Plasma Concentration Rat 1) worked out at 830 ng/mL; in data set [2] (mean of two rats, 10 min post-intubation, read-out: Mean Plasma Concentration) it was 728 ng/mL; in data set [2] (second rat column (head printed Rat 1), 10 min post-intubation, read-out: Plasma Concentration Rat 1) it was 627 ng/mL. Also, the concentration at 30 min in data set [2] (Rat 1, 30 min post-intubation, read-out: Plasma Concentration Rat 1) worked out at 232 ng/mL; in data set [2] (mean of two rats, 30 min post-intubation, read-out: Mean Plasma Concentration) it was 217 ng/mL; in data set [2] (second rat column (head printed Rat 1), 30 min post-intubation, read-out: Plasma Concentration Rat 1) it was 202 ng/mL. Further, the concentration at 60 min came to 69.3 ng/mL in data set [2] (Rat 1, 60 min post-intubation, read-out: Plasma Concentration Rat 1); 47.6 ng/mL in data set [2] (mean of two rats, 60 min post-intubation, read-out: Mean Plasma Concentration); 26 ng/mL in data set [2] (second rat column (head printed Rat 1), 60 min post-intubation, read-out: Plasma Concentration Rat 1). Also, the concentration at 120 min in data set [2] (Rat 1, 120 min post-intubation, read-out: Plasma Concentration Rat 1) was 9.7 ng/mL; in data set [2] (mean of two rats, 120 min post-intubation, read-out: Mean Plasma Concentration), 9.6 ng/mL; in data set [2] (second rat column (head printed Rat 1), 120 min post-intubation, read-out: Plasma Concentration Rat 1), 9.5 ng/mL.

The values are drawn from patent US20070238694A1, “Purine compounds and methods of use thereof” (Inotek Pharmaceuticals Corporation, priority 2006, published 2007).
